# The C3SDB collision cross section collection
# Where “and” joins values, the source holds several entries; their conditions need not be identical. Identical values can stand only once.
# How the values were obtained:
# [1] = instrument: DT, single field, calibrated with ESI Low Concentration Tuning Mix (Agilent)
# [2] = [M+H]+; instrument: TW; calibrated with polyalanine and drug standards
Structure (SMILES),collision cross section (N2) ([1]; [M+Na]+),collision cross section (N2) ([1]; [M-H]-),collision cross section (N2) ([1]; [M+H]+),also measured
C[n+]1cccc(C(N)=O)c1 [1-METHYLNICOTINAMIDE],,,,collision cross section (N2) ([1]; [M+]+): 126.2 Å²
CC(=O)N[C@@H]1[C@@H](O)[C@H](O)[C@@H](CO)O[C@H]1N [2-ACETAMIDO-2-DEOXY-BETA-D-GLUCOSYLAMINE],149.1 Å² and 157.8 Å²,155.2 Å²,,
CC[C@H](O)C(=O)O [2-HYDROXYBUTYRATE],,117.2 Å²,,
CC(CCC(=O)O)C(=O)O (configuration not stated) [2-METHYLGLUTARATE],137.4 Å²,126 Å²,,collision cross section (N2) ([1]; [M+Na-2H]-): 132.6 Å²
C/C(=C/C(=O)O)C(=O)O [2-METHYLMALEATE],,118.2 Å²,,
O=C(O)C(CO)OP(=O)(O)O (configuration not stated) [2-PHOSPHOGLYCERATE],141.9 Å²,124.2 Å²,134.3 Å²,collision cross section (N2) ([1]; [M+Na-2H]-): 133.1 Å²
"O=C(O)c1ccc([O-])c(O)c1 [3,4-DIHYDROXYBENZOATE]",,122.5 Å²,,
"N[C@@H](Cc1cc(I)c(Oc2ccc(O)cc2)c(I)c1)C(=O)O [3,5-DIIODO-L-THYRONINE]",189.4 Å²,188.2 Å²,198.5 Å²,
O=C([O-])CCc1ccccc1O [3-(2-HYDROXYPHENYL)PROPANOATE],,133.2 Å²,,
O=Cc1cccc(O)c1 [3-HYDROXYBENZALDEHYDE],,118 Å²,,
CC1C(=O)Nc2ccccc21 (configuration not stated) [3-METHYL-2-OXINDOLE],,,130.4 Å²,
CCC(C)C(=O)C(=O)O (configuration not stated) [3-METHYL-2-OXOVALERATE],,127.1 Å²,,
NC(CS(=O)O)C(=O)O (configuration not stated) [3-SULFINOALANINE],,,133.7 Å²,
Nc1ccc(C(=O)[O-])cc1 [4-AMINOBENZOATE],,,126.9 Å²,
Cc1ccc(O)c(O)c1 [4-METHYLCATECHOL],,121 Å²,,
O=C(O)c1ccnc2ccccc12 [4-QUINOLINECARBOXYLATE],,134.3 Å²,133.4 Å²,
C[C@H]1O[C@@H](n2cnc3c(N)ncnc32)[C@H](O)[C@@H]1O [5'-DEOXYADENOSINE],167.2 Å²,154.8 Å²,152.3 Å² and 158.4 Å²,
"Cc1cc2nc[nH]c2cc1C [5,6-DIMETHYLBENZIMIDAZOLE]",,129.9 Å²,130.3 Å²,
NC(Cc1c[nH]c2ccc(O)cc12)C(=O)O (configuration not stated) [5-HYDROXYTRYPTOPHAN],152.6 Å²,146.9 Å² and 151.5 Å²,154.5 Å²,collision cross section (N2) ([1]; [M+Na-2H]-): 149.7 Å²
O=C(O)CCCCCC(=O)O [6-CARBOXYHEXANOATE],140 Å²,130.9 Å²,,collision cross section (N2) ([1]; [M+Na-2H]-): 134.4 Å²
O=C(O)CCCCCCCCCO [10-HYDROXYDECANOATE],151 Å²,144.3 Å²,,
NCCP(=O)(O)O [(2-AMINOETHYL)PHOSPHONATE],136.5 Å²,120 Å²,129 Å²,
"Nc1ncnc2c1ncn2[C@@H]1O[C@H](COP(=O)(O)O)[C@@H](OP(=O)(O)O)[C@H]1O [ADENOSINE 3',5'-DIPHOSPHATE]",188 Å²,184.3 Å²,183.3 Å²,collision cross section (N2) ([1]; [M+Na-2H]-): 188.5 Å²
CC12CCCC(O)(C1)C1CC(C)(C)C1CC2 (stereo not drawn) [beta-CARYOPHYLLENE ALCOHOL],,,,collision cross section (N2) [2]: 146.1 Å²
